Patent publication US7105501B2, “Compositions with vascular damaging activity” (Angiogene Pharmaceuticals Ltd., priority 2000, dated 2006)

What was measured:
CaNT tumour vasculature = assay: Activity against tumour vasculature measured by fluorescent dye (Hoechst 33342 functional vascular volume); type: in vivo; settings: CaNT tumour-bearing mice, 24 hours after drug treatment
Experimental: Activity Against Tumour Vasculature Measured by Fluorescent Dye.
Tumour functional vascular volume in CaNT tumour-bearing mice was measured using the fluorescent dye Hoechst 33342 according to the method of Smith et al (Brit J Cancer 57, 247-253, 1988). At least three animals were used in control and treated groups. The fluorescent dye was dissolved in saline at 6.25 mg/ml and injected intravenously at 10 mg/kg 24 hours after drug treatment. One minute later, animals were killed and tumours excised and frozen; 10 μm sections were cut at 3 different levels and observed under UV illumination using an Olympus microscope equipped with epifluorescence. Blood vessels were identified by their fluorescent outlines and vascular volume was quantified using a point scoring system based on that described by Chalkley, (J Natl Cancer Inst, 4, 47-53, 1943). All estimates were based on counting a minimum of 100 fields from sections cut at the 3 different levels. The salts of the invention were more efficacious than their dihydrogen phosphate parent compounds.

CaNT tumours = assay: Induction of tumour necrosis, CaNT tumours; type: in vivo, Mice; settings: tumours excised after 24 h, mean score 1-10, control 2.0
Experimental: (§1) Induction of Tumour Necrosis
(§2) Mice bearing either CaNT or SaS tumours were treated with the test compound and tumours excised after 24 h, fixed in formalin, embedded in paraffin, sectioned and stained with haematoxylin and eosin. Sections were scored based on the estimated area of necrosis as follows:
(§3) Control tumours had mean scores of 2.0 (CaNT) and 1.0 (SaS). The salts of the invention were more efficacious than their dihydrogen phosphate parent compounds.

SaS tumours = assay: Induction of tumour necrosis, SaS tumours; type: in vivo, Mice; settings: tumours excised after 24 h, mean score 1-10, control 1.0
Experimental: as §1, §2, §3

Row | SMILES | % Reduction in Vascular Volume (CaNT tumour vasculature; dose 100 mg/kg) | Necrosis score (CaNT tumours; dose 100 mg/kg) | Necrosis score (SaS tumours; dose 500 mg/kg) | % Reduction in Vascular Volume (CaNT tumour vasculature; dose 50 mg/kg) | Necrosis score (CaNT tumours; dose 50 mg/kg) | Necrosis score (SaS tumours; dose 100 mg/kg)
1 | COc1cc(/C=C\c2ccc(C)c(OP(=O)(O)O)c2)cc(OC)c1OC [(Z)-2-methyl-5-[2-(3,4-,5-trimethoxyphenyl)ethenyl]phenyl dihydrogen phosphate] | 28% | 5.3 |  |  |  | 
2 | COc1ccc(/C=C\c2cc(OC)c(OC)c(OC)c2)cc1OP(=O)(O)O [Combretastatin A4 phosphate, combretastatin A4 phosphate] | 26% | 5.0 | 1.4 |  |  | 
3 | COc1cc(/C=C\c2ccc(C)c(OP(=O)(O)O)c2)cc(OC)c1OC.NC(=N[N+](=O)[O-])NCCCC(N)C(=O)O [Example 2, (Z)-2-methyl-5-[2-(3,4,5-trimethoxyphenyl)ethenyl]phenyl (1-carboxy-4-N′-nitroguanidinobutylammonium) hydrogen phosphate] |  |  |  | 42% | 8.7 | 7.7
4 | COC(=O)C(N)CCCNC(N)=N[N+](=O)[O-].COc1cc(/C=C\c2ccc(C)c(OP(=O)(O)O)c2)cc(OC)c1OC [Example 5, (Z)-2-methyl-5-[2-(3,4,5-trimethoxyphenyl)ethenyl]phenyl (1-methoxycarbonyl-4-N′-nitroguanidinobutylammonium) hydrogen phosphate] |  |  |  | 86% | 10.0 | 
